The values that follow come from patent publication US20240408071A1, “NOVEL COMBINATION OF SEROTONIN RECEPTOR (5-HTR2B) ANTAGONIST AND AN IMMUNOMODULATOR AND CHEMOTHERAPEUTIC DRUGS FOR INHIBITION OF CANCER” (NATIONAL CENTRE FOR CELL SCIENCE, priority 2021, published 2024).

In test [1] the test system is serotonin. As to the kind of experiment: Serum serotonin level in MC38 colon tumor-bearing mice. The conditions noted are these: MC38-induced colon tumor-bearing mice, SSRI treatment. It counts as in vivo. As for the experimental part: This secretory variant of PD-L1 is responsible for most of the resistance to the anti-PD-L1 therapy in the tumor.
(§1) Universal competitive serotonin ELISA kit was purchased from Novus biological (Catalog #NBP2-68127), and ELISA was performed according to the manufacturer's protocol. Mouse PD-L1 DuoSet ELISA kit was procured from the R&D System (Catalog #DY1019-05), and the ELISA was performed according to the manufacturer's guidelines.

Test [2] has as its system PD-L1. As to the kind of experiment: Serum PD-L1 ELISA in MC38 tumor-bearing mice. Particulars: MC38-induced colon tumor-bearing mice, SSRI treatment. It counts as in vivo, C57BL/6J mice. As for the experimental part: FIG. 13 depicts 5-HTR2B signaling promotes PD-L1 expression on the MC38 cell line in vitro: (A-B) MC38 cells are treated with 5-HTR2B agonist (BW-723C86-50 μM), serotonin (100 μM), and 5-HTR2B antagonist (RS-127445-50 μM) for 72 hours, and the PD-L1 expression was checked by flow cytometry and the percentage of PD-L1^+ MC38 cells was plotted. (C-D) MFI of PD-L1 from the above experiment were plotted as histogram overlay (C) or as statistical data points (D). (E) Relative PD-L1 mRNA expression in MC38 cells following BW-723C86 and RS-127445 treatment for 48 hours. Here the values are shown as a fold change as compared to control MC38 cells. […] All the statistical analysis was performed using either Student's ‘t’ test or two-way ANOVA using Sidak's multiple comparison test. *P<0.05; **P<0.01; […]; ****P<0.0001 Error bar represents mean±standard error of means (SEM).
as §1
To understand it, investigations were done on whether 5-HTR2B signaling also affects the surface expression of molecules that alters inflammatory and cytotoxic immune cells. Among different molecules, PD-L1 is of particular interest as it is an immune checkpoint ligand that affects cytotoxic T-cell responses toward cancer. […] (FIG. 13F).
(In general: ELISA stands for enzyme-linked immunosorbent assay.)

For test [3], the system named is MC38 colon cancer cells. Nature of the test: MC38 colon tumor growth (tumor volume) in C57BL/6 mice. It counts as in vivo. Particulars: sertraline hydrochloride 15 mg/kg/week (FIG. 7C).
Method: Tumor volumes were measured and plotted. (B) MC38 colon cancer cells were injected subcutaneously into the right flank of C57BL/6 mice. After seven days when tumors became palpable, one group was treated with 5-HTR7 antagonist SB-269970 (n=6 mice; 3 mg/kg/day) or left untreated (n=6 mice). Tumor volume was measured and plotted. (C) After seven days of the setting of tumor growth, one group was treated with a serotonin transporter blocker (SSRI) sertraline hydrochloride (n=6 mice; 15 mg/kg/week) or left untreated (n=6 mice). Tumor volume was measured and plotted. (D) C57BL/6 mice were given subcutaneously injected MC38 cells. After seven days of tumor growth, one group of mice was treated with different doses of 5-HTR2B antagonist SB-215505 (n=6). Tumor volume was measured and plotted. (E) C57BL/6 mice were given subcutaneously injected MC38 cells. After seven days of the tumor growth, one group of mice was treated with different doses of 5-HTR2B antagonist SB-215505 (n=6), one group treated with 5-HTR2B agonist BW-723C86 (n=6; 4 mg/kg/day). Tumor volume was measured and plotted. (F) MC38 cells were subcutaneously injected into C57BL/6 mice. After seven days when the tumor became palpable in mice, one group of mice was treated with FDA-approved 5-HTR2B antagonist cariprazine (Carispec; Sun pharma) via oral gavage (n=5 mice; dose 5 mg/kg body weight/day) or left untreated (n=5 mice). Tumor growth was measured and plotted. […] All the statistical analysis was performed using Student's ‘t’ test or two-way ANOVA using Sidak's multiple comparison test. *P<0.05; **P<0.01; ***P<0.00; ****P<0.0001 Error bar represents mean±standard error of means (SEM).

As to `CN[C@H]1CC[C@@H](c2ccc(Cl)c(Cl)c2)c2ccccc21` [sertraline], the “free serotonin level in the serum” value in test [1] was “increased free serotonin level in the serum”. In test [2], the “secretory PD-L1 variant level in the serum” value is reported as “enhanced the secretory PD-L1 variant level in the serum”. For the same compound, the MC38 tumor growth entry in test [3] was “promotes MC38 tumor growth”.
